{"source": "patent US20070238745A1", "about": "“PI3K-Akt Pathway Inhibitors” (UNIVERSITY OF SOUTH FLORIDA, priority 2006, published 2007)", "key": {"PC3 cells [1]": {"test_system": "PC3 cells", "assay": "Apoptosis of PC3 cells (DNA fragmentation Cell Death ELISA, Tunel)", "format": "cell-based, human", "details": "20 mM LY, 20 mM API-2, 50 mM roscovitine or combination for 14 hr (ELISA); 40 hrs (Tunel)", "procedure": "Tunel positive cells are shown. […] Cells were incubated with Hoechest stain for 5 mins and examined using a fluorescent microscope. […] Amounts of cytosolic histone associated DNA fragments were measured.\n(§1) Prostate cancer cell lines used in our studies include LNCaP, LNCaP-Rf, PC3 and PC3-MM2. […] LNCaP cells and PC3 cells were derived from a lymph node metastasis and a bone metastasis, respectively, of human prostate tumors. All these cell lines express constitutively active AKT. To distinguish the effects of our therapeutics between normal and tumor cells, we also used an immortalized but non-tumorigenic prostate epithelial cell line, RWPE, in our study. All experiments were performed on growing cells in medium containing 10% fetal calf serum."}, "Bim [2]": {"test_system": "Bim", "assay": "Amounts of Bim in LNCaP and PC3 cells", "format": "cell-based, human", "source_text": "How AKT inhibitors facilitate the mitochondria-dependent apoptosis of prostate cancer cells remains to be determined. Potential mechanisms include accumulation of the BH3-only protein Bim and dephosphorylation and activation of Bad. The FOXO factors activate the Bim promoter, and AKT phosphorylates Bim, which may prevent its degradation."}, "LNCaP cells [3]": {"test_system": "LNCaP cells", "assay": "PARP cleavage by Western blotting in LNCaP cells", "format": "cell-based, human", "procedure": "Cell lysates were analysed for PARP cleavage by Western blotting. […] Lysates were analysed by Western blotting. […] Lysates were analysed by Western blotting. In FIG. 1D LNCaP cells were transfected with pcDNA3 (vector) or pcDNA3 encoding dn-AKT plasmid. […] Lysates were analysed by Western blotting.\nas §1\nApoptosis was monitored by cleavage of the caspase-3 substrate poly (ADP-ribose) polymerase (PARP)."}, "PC3-MM2 cells": {"test_system": "PC3-MM2 cells", "assay": "Cell growth by trypan-blue exclusion, PC3-MM2", "format": "cell-based, human", "details": "72 hr", "procedure": "(§2) FIG. 3 is a series of graphs illustrating the effects of drugs on growth potential of prostate cancer cells. Cells were treated with various inhibitors for 72 hrs and cell growth was enumerated by trypan-blue exclusion.\nas §1\n(§3) Further, effects of the combination treatment in altering colony formation potential were examined. For this purpose, cells were exposed to drugs for 24 or 46 hrs and trypsinized. Ten thousand viable cells were replated and allowed to grow colonies for 2 weeks."}, "PC3 cells [4]": {"test_system": "PC3 cells", "assay": "Cell growth by trypan-blue exclusion, PC3", "format": "cell-based, human", "details": "72 hr", "procedure": "as §2, §1, §3"}, "LNCaP, LAPC4 and LAPC9": {"test_system": "LNCaP, LAPC4 and LAPC9", "details": "most prostate cancer cell lines, including LNCaP; cited from earlier work"}, "[5]": {"details": "cited from earlier work"}, "[6]": {"test_system": "malignant tumors refractory to conventional treatments", "details": "patients with malignant tumors refractory to conventional treatments; cited from earlier work"}, "151 kinases": {"test_system": "151 kinases", "details": "cited from earlier work"}, "[7]": {"test_system": "lung, breast, and B cell cancer", "details": "cited from earlier work"}, "LNCaP cells [8]": {"test_system": "LNCaP cells", "details": "cited from earlier work"}, "[9]": {"details": "cited from earlier work", "remark": "listed apart in the source"}, "[10]": {"test_system": "HTLV-I transformed T cell lines (MT-2)", "details": "cited from earlier work"}, "Cdk7/Cdk9": {"test_system": "Cdk7/Cdk9", "assay": "Western blotting: phosphorylation of RNA-Pol II in PC3 cells", "details": "short-term exposure (8 hrs)", "quoted_text": "(§5) Lysates were analysed by Western blotting. […] Cells were exposed to drugs for 20 hrs. Lysates were analysed by Western blotting."}, "XIAP [11]": {"test_system": "XIAP", "details": "PC3 cells, longer exposure (20 hrs), single agent", "procedure": "(§4) Lysates were analysed by Western blotting. […] Lysates were analysed by Western blotting."}, "Bim [12]": {"test_system": "Bim", "details": "PC3 cells, 8 hrs; roscovitine in either the presence or absence of API-2", "procedure": "as §4"}, "LNCaP, LNCaP-Rf": {"test_system": "LNCaP, LNCaP-Rf", "details": "LNCaP-Rf prostate cancer cells, roscovitine alone; cited from earlier work"}, "[13]": {"test_system": "melanoma cells expressing wild-type p53 (A375, 888-Mel, 624-Mel)", "details": "melanoma cells A375, 888-Mel, 624-Mel (wild-type p53); cited from earlier work"}, "XIAP [14]": {"test_system": "XIAP", "details": "LNCaP, LNCaP-Rf, and PC3 cells; cited from earlier work"}, "p53": {"test_system": "p53", "details": "LNCaP and LNCaP-Rf cells; cited from earlier work"}, "PC3 and DU145 cells": {"test_system": "PC3 and DU145 cells", "details": "cited from earlier work"}, "Bcl-2": {"test_system": "Bcl-2", "assay": "Western blotting: Bcl-2 expression in PC3 cells", "details": "longer exposure (20 hrs)", "quoted_text": "as §5"}, "[15]": {"details": "orally, 3 times a day at 200 mg/kg or 2 times a day at 500 mg/kg; cited from earlier work"}}, "note": "“Also recorded” adds a separate entry of the source. Where two headings read alike, the source gives them in different places."}
{"smiles": "O=c1cc(N2CCOCC2)oc2c(-c3ccccc3)cccc12", "note": "[LY, 2-(4-morpholinyl)-8-phenyl-4H-1-benzopyran-4-one]", "values": [{"measurement": "apoptosis of PC3 cells", "setting": "PC3 cells [1]", "result": "not"}, {"measurement": "amounts of Bim", "setting": "Bim [2]", "result": "increase amounts of Bim"}, {"measurement": "PARP cleavage", "setting": "LNCaP cells [3]; LNCaP cells, 8 hours, cleavage of caspase-3 substrate PARP, 10 uM LY294002 or 0.5 uM Wortmannin", "result": "did not induce any PARP cleavage"}, {"measurement": "cell growth", "setting": "PC3-MM2 cells", "result": "inhibit cell growth"}, {"measurement": "cell growth", "setting": "PC3 cells [4]", "result": "inhibit cell growth"}, {"measurement": "apoptotic response", "setting": "LNCaP, LAPC4 and LAPC9", "result": "induce a potent apoptotic response"}, {"measurement": "in vivo half-life", "setting": "[5]", "result": "short in vivo half-life"}]}
{"smiles": "CC[C@H](CO)Nc1nc(NCc2ccccc2)c2ncn(C(C)C)c2n1", "note": "[R-roscovitine, 2-(1-R-hydroxymethylpropylamino)-6-benzylamino-9-iso-propylpurine]", "values": [{"measurement": "toxicity, Phase I trial", "setting": "[6]", "result": "toxicity at higher doses"}, {"measurement": "tumor responses, Phase I trial", "setting": "[6]", "result": "no objective tumor responses"}, {"measurement": "binding among 151 kinases examined", "setting": "151 kinases", "result": "bound only its known CDK targets and pyridoxal kinase"}, {"measurement": "responses, Phase II clinical trials", "setting": "[7]", "result": "partial responses lasting more than four months"}, {"measurement": "toxicity, Phase II clinical trials", "setting": "[7]", "result": "limited toxicity"}]}
{"smiles": "Cc1ccc(C(=O)Cn2c3c(sc2=N)CCCC3)cc1", "note": "[pifithrin-α]", "values": [{"measurement": "rescue from roscovitine-induced apoptosis", "setting": "LNCaP cells [8]", "result": "rescues LNCaP cells"}]}
{"smiles": "CCC(CO)Nc1nc(NCc2ccccc2)c2ncn(C(C)C)c2n1", "note": "(stereo not shown) [roscovitine, 2-(1-ethyl-2-hydroxyethylamino)-6-benzylamino-9-isopropylpurine]", "values": [{"measurement": "tissue distribution / tumor uptake", "setting": "[9]; in vivo", "result": "highest tumor uptake"}, {"measurement": "clearance from plasma", "setting": "[9]; via oxidative metabolism of the side chain hydroxyl group, excreted in urine", "result": "clears slowly"}, {"measurement": "apoptosis of PC3 cells", "setting": "PC3 cells [1]", "result": "not"}, {"measurement": "apoptosis", "setting": "[10]", "result": "readily induces apoptosis"}, {"measurement": "activity of Cdk7/Cdk9 as measured by phosphorylation of RNA-Pol II", "setting": "Cdk7/Cdk9", "result": "reduced activity"}, {"measurement": "XIAP expression / abundance", "setting": "XIAP [11]", "result": "reduced expression of XIAP"}, {"measurement": "Bim abundance", "setting": "Bim [12]", "result": "did not alter Bim abundance"}, {"measurement": "apoptosis", "setting": "LNCaP, LNCaP-Rf", "result": "can induce apoptosis; also recorded: readily induces apoptosis"}, {"measurement": "apoptosis", "setting": "[13]", "result": "apoptose; also recorded: readily induces apoptosis"}, {"measurement": "XIAP expression", "setting": "XIAP [14]", "result": "reduces XIAP expression"}, {"measurement": "p53 abundance", "setting": "p53", "result": "increases p53 abundance"}, {"measurement": "PARP cleavage", "setting": "LNCaP cells [3]", "result": "did not induce any PARP cleavage"}, {"measurement": "PARP cleavage in the presence as compared with the absence of dominant-negative AKT", "setting": "LNCaP cells [3]", "result": "enhanced PARP cleavage"}, {"measurement": "exposure time at which robust PARP cleavage was evident", "setting": "LNCaP cells [3]", "result": "more than 9 hr"}, {"measurement": "apoptosis when supplied with roscovitine and wild-type p53", "setting": "PC3 and DU145 cells; DU145 and PC3 cells", "result": "efficiently apoptose"}, {"measurement": "apoptosis", "setting": "PC3 and DU145 cells", "result": "relatively resistant and not"}, {"measurement": "Bcl-2 expression", "setting": "Bcl-2", "result": "not"}, {"measurement": "cell growth", "setting": "PC3-MM2 cells", "result": "inhibit cell growth"}, {"measurement": "toxicity or adverse effects", "setting": "[15]", "result": "without any toxicity or adverse effects"}, {"measurement": "cell growth", "setting": "PC3 cells [4]", "result": "inhibit cell growth"}]}
{"smiles": "COC[C@H]1OC(=O)c2coc3c2[C@@]1(C)C1=C(C3=O)[C@@H]2CCC(=O)[C@@]2(C)C[C@H]1OC(C)=O", "note": "[wortmannin]", "values": [{"measurement": "in vivo half-life", "setting": "[5]", "result": "short in vivo half-life"}]}
